# Test results as given in US20220235049A1, “SUBSTITUTED PYRROLO [2, 3-b] PYRIDINE AND PYRAZOLO [3,4-b] PYRIDINE DERIVATIVES AS PROTEIN KINASE INHIBITORS” (Fochon Pharmaceuticals, Ltd., priority 2019, published 2022).
# Tested on: DOHH2 cells
# Test: Cell proliferation assay in DOHH2 cells (MTS)
# Type: cell-based
# Settings: 120 h
# Procedure: To investigate whether a compound is able to inhibit the activity of BTK in cells, a mechanism-based assay using DOHH2 (DSMZ catalog #: ACC47) cell was developed. In this assay, inhibition of BTK was detected by the inhibition of DOHH2 cells proliferation. Cells were collected and plated onto 96-well plates at the optimized cell density (5000 cells/well). Plates were incubated at 37° C., with 5% CO2 for 4 h. Compounds were serially diluted and added to the plates with the final concentrations as 10000, 3333.3, 1111.1, 370.4, 123.5, 41.2, 13.7, 4.6 and 1.5 nM. Plates were incubated at 37° C., with 5% CO2 for 120 h. An aliquot of 20 μL MTS/100 μL medium mixture solution were added to each well and the plates were incubated for exactly 2 h. The reaction was stopped by adding 25 μL 10% SDS to each well. The absorbance was measured by a microplate reader at 490 nm and 650 nm (reference wavelength). IC50 was calculated using GraphPad Prism 5.0.
# Select compounds prepared as described above were assayed according to the biological procedures described herein.
row,SMILES,IC50 [nM]
1,"Cc1cc(Oc2ccccc2)ccc1C(=O)c1c[nH]c2ncc(C#N)c(N[C@@]34COC(CO)[C@@H]3C4)c12 (single isomer, unassigned) [Example 19]",88
2,"COc1cnc2[nH]cc(C(=O)c3ccc(Oc4ccccc4F)cc3F)c2c1N[C@@]12CO[C@H](CO)C1C2 (single isomer, unassigned) [Example 168]",8
3,"COc1cnc2[nH]cc(C(=O)c3ccc(Oc4ccccc4F)cc3F)c2c1N[C@@]12CO[C@H](CO)C1C2 (single isomer, unassigned) [Example 169]",65

# Same assay, conditions: Homo sapiens, DOHH-2, 120 h
row,SMILES,IC50 [nM]
1,"O=C(c1c(F)cc(Oc2ccccc2)cc1F)c1c[nH]c2nccc(N[C@@H]3CC[C@@H](CO)OC3)c12 [Example 44, (2,6-difluoro-4-phenoxyphenyl)(4-(((3R,6S)-6-(hydroxymethyl)tetrahydro-2H-pyran-3-yl)amino)-1H-pyrrolo[2,3-b]pyridin-3-yl)methanone]",7
2,"Cc1cc(Oc2ccccc2F)ccc1C(=O)c1c[nH]c2ncc(F)c(N[C@@H]3CC[C@@H](CO)OC3)c12 [Example 126, (5-fluoro-4-(((3R,6S)-6-(hydroxymethyl)tetrahydro-2H-pyran-3-yl)amino)-1H-pyrrolo[2,3-b]pyridin-3-yl)(4-(2-fluorophenoxy)-2-methylphenyl)methanone]",4
3,"O=C(c1ccc(Oc2ccccc2)cc1F)c1c[nH]c2nccc(N[C@@H]3CC[C@@H](CO)OC3)c12 [Example 10, (2-fluoro-4-phenoxyphenyl)(4-(((3R,6S)-6-(hydroxymethyl)tetrahydro-2H-pyran-3-yl)amino)-1H-pyrrolo[2,3-b]pyridin-3-yl)methanone]",19
4,"Cc1cc(Oc2ccccc2F)cc(F)c1C(=O)c1c[nH]c2nccc(N[C@@H]3CC[C@@H](CO)OC3)c12 [Example 130, (2-fluoro-4-(2-fluorophenoxy)-6-methylphenyl)(4-(((3R,6S)-6-(hydroxymethyl)tetrahydro-2H-pyran-3-yl)amino)-1H-pyrrolo[2,3-b]pyridin-3-yl)methanone]",36
5,"O=C(c1ccc(Oc2ccccc2F)cc1)c1c[nH]c2nccc(N[C@@H]3CC[C@@H](CO)OC3)c12 [Example 104, (4-(2-fluorophenoxy)phenyl)(4-(((3R,6S)-6-(hydroxymethyl)tetrahydro-2H-pyran-3-yl)amino)-1H-pyrrolo[2,3-b]pyridin-3-yl)methanone]",23
6,"N#Cc1cnc2[nH]cc(C(=O)c3ccc(Oc4ccccc4)c(Cl)c3Cl)c2c1N[C@@H]1CC[C@@H](CO)OC1 [Example 37, 3-(2,3-dichloro-4-phenoxybenzoyl)-4-(((3R,6S)-6-(hydroxymethyl)tetrahydro-2H-pyran-3-yl)amino)-1H-pyrrolo[2,3-b]pyridine-5-carbonitrile]",48
7,"COc1cnc2[nH]cc(C(=O)c3ccc(Oc4ccccc4F)cc3Cl)c2c1N[C@@H]1CC[C@@H](CO)OC1 [Example 77, (2-chloro-4-(2-fluorophenoxy)phenyl)(4-(((3R,6S)-6-(hydroxymethyl)tetrahydro-2H-pyran-3-yl)amino)-5-methoxy-1H-pyrrolo[2,3-b]pyridin-3-yl)methanone]",1
8,"Cc1cc(Oc2ccccc2F)ccc1C(=O)c1c[nH]c2ncc(F)c(N[C@@]34CO[C@H](CO)C3C4)c12 (single isomer, unassigned) [Example 179]",1
9,"COc1cnc2[nH]cc(C(=O)c3ccc(Oc4ccccc4F)cc3F)c2c1N[C@@H]1CC[C@@H](CNC(C)=O)OC1 [Example 160, N-(((2S,5R)-5-((3-(2-fluoro-4-(2-fluorophenoxy)benzoyl)-5-methoxy-1H-pyrrolo[2,3-b]pyridin-4-yl)amino)tetrahydro-2H-pyran-2-yl)methyl)acetamide]",1
10,"CCOc1cnc2[nH]cc(C(=O)c3ccc(Oc4ccccc4F)cc3Cl)c2c1N[C@@H]1CC[C@@H](CO)OC1 [Example 65, (2-chloro-4-(2-fluorophenoxy)phenyl)(5-ethoxy-4-(((3R,6S)-6-(hydroxymethyl)tetrahydro-2H-pyran-3-yl)amino)-1H-pyrrolo[2,3-b]pyridin-3-yl)methanone]",1
11,"COc1cnc2[nH]cc(C(=O)c3ccc(Oc4ccccc4F)cc3F)c2c1N[C@@H]1CCC(CO)(CO)OC1 [Example 164, (R)-(4-((6,6-bis(hydroxymethyl)tetrahydro-2H-pyran-3-yl)amino)-5-methoxy-1H-pyrrolo[2,3-b]pyridin-3-yl)(2-fluoro-4-(2-fluorophenoxy)phenyl)methanone]",22
12,"COc1cnc2[nH]cc(C(=O)c3ccc(Oc4ccccc4F)cc3)c2c1N[C@@H]1CC[C@@H](CO)OC1 [Example 73, (4-(2-fluorophenoxy)phenyl)(4-(((3R,6S)-6-(hydroxymethyl)tetrahydro-2H-pyran-3-yl)amino)-5-methoxy-1H-pyrrolo[2,3-b]pyridin-3-yl)methanone]",1
13,"COc1cnc2[nH]cc(C(=O)c3c(C)cc(Oc4ccccc4F)cc3F)c2c1N[C@@H]1CC[C@@H](CO)OC1 [Example 132, (2-fluoro-4-(2-fluorophenoxy)-6-methylphenyl)(4-(((3R,6S)-6-(hydroxymethyl)tetrahydro-2H-pyran-3-yl)amino)-5-methoxy-1H-pyrrolo[2,3-b]pyridin-3-yl)methanone]",7
14,"N#Cc1cnc2[nH]cc(C(=O)c3c(F)cc(Oc4ccccc4)cc3F)c2c1N[C@@H]1CC[C@@H](CO)OC1 [Example 45, 3-(2,6-difluoro-4-phenoxybenzoyl)-4-(((3R,6S)-6-(hydroxymethyl)tetrahydro-2H-pyran-3-yl)amino)-1H-pyrrolo[2,3-b]pyridine-5-carbonitrile]",57
15,"COc1cnc2[nH]cc(C(=O)c3ccc(Oc4ccccc4F)cc3F)c2c1N[C@@H]1CC[C@@H](CNS(C)(=O)=O)OC1 [Example 161, N-(((2S,5R)-5-((3-(2-fluoro-4-(2-fluorophenoxy)benzoyl)-5-methoxy-1H-pyrrolo[2,3-b]pyridin-4-yl)amino)tetrahydro-2H-pyran-2-yl)methyl)methanesulfonamide]",14
16,"COc1cnc2[nH]cc(C(=O)c3ccc(Oc4ccccc4)cc3F)c2c1N[C@@H]1CC[C@@H](CO)OC1 [Example 191, (2-fluoro-4-phenoxyphenyl)(4-(((3R,6S)-6-(hydroxymethyl)tetrahydro-2H-pyran-3-yl)amino)-5-methoxy-1H-pyrrolo[2,3-b]pyridin-3-yl)methanone]",1
17,"O=C(c1ccc(Oc2c(F)cccc2F)cc1Cl)c1c[nH]c2ncc(F)c(N[C@@H]3CC[C@@H](CO)OC3)c12 [Example 187, (2-chloro-4-(2,6-difluorophenoxy)phenyl)(5-fluoro-4-(((3R,6S)-6-(hydroxymethyl)tetrahydro-2H-pyran-3-yl)amino)-1H-pyrrolo[2,3-b]pyridin-3-yl)methanone]",52
18,"Cc1cc(Oc2cccc(F)c2)ccc1C(=O)c1c[nH]c2ncc(C#N)c(N[C@@H]3CC[C@@H](CO)OC3)c12 [Example 49, 3-(4-(3-fluorophenoxy)-2-methylbenzoyl)-4-(((3R,6S)-6-(hydroxymethyl)tetrahydro-2H-pyran-3-yl)amino)-1H-pyrrolo[2,3-b]pyridine-5-carbonitrile]",100
19,"COC(=O)NC[C@@H]1CC[C@@H](Nc2c(OC)cnc3[nH]cc(C(=O)c4ccc(Oc5ccccc5F)cc4F)c23)CO1 [Example 163, methyl (((2S,5R)-5-((3-(2-fluoro-4-(2-fluorophenoxy)benzoyl)-5-methoxy-1H-pyrrolo[2,3-b]pyridin-4-yl)amino)tetrahydro-2H-pyran-2-yl)methyl)carbamate]",45
20,"O=C(c1ccc(Oc2ccccc2F)cc1)c1c[nH]c2ncc(Cl)c(N[C@@H]3CC[C@@H](CO)OC3)c12 [Example 98, (5-chloro-4-(((3R,6S)-6-(hydroxymethyl)tetrahydro-2H-pyran-3-yl)amino)-1H-pyrrolo[2,3-b]pyridin-3-yl)(4-(2-fluorophenoxy)phenyl)methanone]",41
21,COc1cnc2[nH]cc(C(=O)c3ccc(Oc4ncccc4F)cc3F)c2c1N[C@@H]1CC[C@@H](CO)OC1 [Example 195],83
22,"O=C(c1ccc(Oc2ccccc2F)cc1Cl)c1c[nH]c2ncc(Cl)c(N[C@@H]3CC[C@@H](CO)OC3)c12 [Example 100, (5-chloro-4-(((3R,6S)-6-(hydroxymethyl)tetrahydro-2H-pyran-3-yl)amino)-1H-pyrrolo[2,3-b]pyridin-3-yl)(2-chloro-4-(2-fluorophenoxy)phenyl)methanone]",67
23,"O=C(c1ccc(Oc2ccccc2F)cc1F)c1c[nH]c2ncc(F)c(N[C@@H]3CC[C@@H](CO)OC3)c12 [Example 115, (5-fluoro-4-(((3R,6S)-6-(hydroxymethyl)tetrahydro-2H-pyran-3-yl)amino)-1H-pyrrolo[2,3-b]pyridin-3-yl)(2-fluoro-4-(2-fluorophenoxy)phenyl)methanone]",5
24,"COc1cnc2[nH]cc(C(=O)c3ccc(Oc4ccccc4)cc3C)c2c1N[C@@H]1CC[C@@H](CO)OC1 [Example 134, (4-(((3R,6S)-6-(hydroxymethyl)tetrahydro-2H-pyran-3-yl)amino)-5-methoxy-1H-pyrrolo[2,3-b]pyridin-3-yl)(2-methyl-4-phenoxyphenyl)methanone]",1
25,"O=C(c1ccc(Oc2ccccc2F)cc1Cl)c1c[nH]c2nccc(N[C@@H]3CC[C@@H](CO)OC3)c12 [Example 30, (2-chloro-4-(2-fluorophenoxy)phenyl)(4-(((3R,6S)-6-(hydroxymethyl)tetrahydro-2H-pyran-3-yl)amino)-1H-pyrrolo[2,3-b]pyridin-3-yl)methanone]",21
